According to PubChem BioAssay (NCI):
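Five compound concentrations were applied to cells in 96-well plates for 48 hours; endpoints were derived by simple linear interpolation of the resulting dose-response curve. Here, GI50 denotes the concentration required for 50% inhibition of growth. TGI is the concentration that stops growth completely.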

Legend:
Assay in all cases: NCI anticancer screen, dose series, 48 h
[1] = tested on: SNB-75 CNS
[2] = tested on: TK-10 renal
[3] = tested on: MDA-MB-231 breast
[4] = tested on: LOX IMVI melanoma
[5] = tested on: BT-549 breast
[6] = tested on: SR leukemia
[7] = tested on: OVCAR-8 ovarian
[8] = tested on: MDA-MB-435
[9] = tested on: MALME-3M melanoma
[10] = tested on: ACHN renal
[11] = tested on: MCF7 breast
[12] = tested on: SW-620 colon
[13] = tested on: SK-MEL-2 melanoma
[14] = tested on: K-562 leukemia
[15] = tested on: RXF 393 renal
[16] = tested on: U251 CNS
[17] = tested on: UACC-257 melanoma
[18] = tested on: NCI-H23 lung
[19] = tested on: OVCAR-5 ovarian
[20] = tested on: HOP-62 NSCLC
[21] = tested on: NCI-H522 lung
[22] = tested on: NCI-H460 lung
[23] = tested on: SF-295 CNS
[24] = tested on: MOLT-4 leukemia
[25] = tested on: HOP-92 NSCLC
[26] = tested on: UO-31 renal
[27] = tested on: SN12C renal
[28] = tested on: SK-OV-3 ovarian
[29] = tested on: KM12 colon
[30] = tested on: HCC-2998 colon
[31] = tested on: M14 melanoma
[32] = tested on: CCRF-CEM leukemia
[33] = tested on: NCI-H226 lung
[34] = tested on: 786-0 renal
[35] = tested on: SF-539 CNS
[36] = tested on: A498 renal
[37] = tested on: SF-268 CNS
[38] = tested on: SNB-19 CNS
[39] = tested on: SK-MEL-28 melanoma
[40] = tested on: HS 578T breast
[41] = tested on: HL-60(TB) leukemia

Q: With `NC(=O)c1ccc(NC(=O)c2oc3ccccc3c2-c2cnn(-c3ccccc3)c2)cc1` as the molecule, how does the GI50 [1] read?
A: 1.89 µM

Q: What about the TGI [1] of the same molecule?
A: 8.31 µM

Q: What about the GI50 [2] of the same molecule?
A: > 23.3 µM

Q: What about the TGI [2] of the same molecule?
A: > 100 µM

Q: And the GI50 [3]?
A: 4.65 µM

Q: And the TGI [3]?
A: > 100 µM

Q: And the GI50 [4]?
A: > 100 µM

Q: What about the TGI [4] of the same molecule?
A: > 100 µM

Q: What about the GI50 [5] of the same molecule?
A: 3.51 µM

Q: What about the TGI [5] of the same molecule?
A: > 100 µM

Q: And the GI50 [6]?
A: > 100 µM

Q: And the TGI [6]?
A: > 100 µM

Q: And the GI50 [7]?
A: > 100 µM

Q: What about the TGI [7] of the same molecule?
A: > 100 µM

Q: And the GI50 [8]?
A: > 100 µM

Q: And the TGI [8]?
A: > 100 µM

Q: And the GI50 [9]?
A: > 100 µM

Q: What about the TGI [9] of the same molecule?
A: > 100 µM

Q: And the GI50 [10]?
A: 5.03 µM

Q: What about the TGI [10] of the same molecule?
A: > 100 µM

Q: And the GI50 [11]?
A: > 100 µM

Q: And the TGI [11]?
A: > 100 µM

Q: What about the GI50 [12] of the same molecule?
A: > 100 µM

Q: And the TGI [12]?
A: > 100 µM

Q: What about the GI50 [13] of the same molecule?
A: 20.4 µM

Q: What about the TGI [13] of the same molecule?
A: > 100 µM

Q: What about the GI50 [14] of the same molecule?
A: > 100 µM

Q: What about the TGI [14] of the same molecule?
A: > 100 µM

Q: And the GI50 [15]?
A: 1.33 µM

Q: And the TGI [15]?
A: 6.03 µM

Q: What about the GI50 [16] of the same molecule?
A: 5.42 µM

Q: What about the TGI [16] of the same molecule?
A: > 100 µM

Q: What about the GI50 [17] of the same molecule?
A: > 100 µM

Q: What about the TGI [17] of the same molecule?
A: > 100 µM

Q: What about the GI50 [18] of the same molecule?
A: 6 µM

Q: What about the TGI [18] of the same molecule?
A: > 100 µM

Q: What about the GI50 [19] of the same molecule?
A: > 100 µM

Q: What about the TGI [19] of the same molecule?
A: > 100 µM

Q: And the GI50 [20]?
A: 3.33 µM

Q: And the TGI [20]?
A: 46.6 µM

Q: And the GI50 [21]?
A: > 100 µM

Q: What about the TGI [21] of the same molecule?
A: > 100 µM

Q: And the GI50 [22]?
A: > 100 µM

Q: What about the TGI [22] of the same molecule?
A: > 100 µM

Q: And the GI50 [23]?
A: > 35.5 µM

Q: And the TGI [23]?
A: > 100 µM

Q: What about the GI50 [24] of the same molecule?
A: > 100 µM

Q: And the TGI [24]?
A: > 100 µM

Q: And the GI50 [25]?
A: 1.69 µM

Q: What about the TGI [25] of the same molecule?
A: 6.46 µM

Q: And the GI50 [26]?
A: > 100 µM

Q: And the TGI [26]?
A: > 100 µM

Q: And the GI50 [27]?
A: > 100 µM

Q: And the TGI [27]?
A: > 100 µM

Q: What about the GI50 [28] of the same molecule?
A: > 100 µM

Q: And the TGI [28]?
A: > 100 µM

Q: What about the GI50 [29] of the same molecule?
A: > 100 µM

Q: And the TGI [29]?
A: > 100 µM

Q: What about the GI50 [30] of the same molecule?
A: > 100 µM

Q: What about the TGI [30] of the same molecule?
A: > 100 µM

Q: What about the GI50 [31] of the same molecule?
A: > 100 µM

Q: And the TGI [31]?
A: > 100 µM

Q: And the TGI [32]?
A: > 23.2 µM

Q: And the GI50 [33]?
A: 2.98 µM

Q: What about the TGI [33] of the same molecule?
A: > 100 µM

Q: What about the GI50 [34] of the same molecule?
A: 5.41 µM

Q: And the TGI [34]?
A: > 85.2 µM

Q: And the GI50 [35]?
A: > 100 µM

Q: And the TGI [35]?
A: > 100 µM

Q: And the GI50 [36]?
A: 60.8 µM

Q: What about the TGI [36] of the same molecule?
A: > 100 µM

Q: And the GI50 [37]?
A: 5.79 µM

Q: What about the TGI [37] of the same molecule?
A: > 100 µM

Q: And the GI50 [38]?
A: 8.98 µM

Q: And the TGI [38]?
A: > 100 µM

Q: What about the GI50 [39] of the same molecule?
A: > 100 µM

Q: What about the TGI [39] of the same molecule?
A: > 100 µM

Q: And the GI50 [40]?
A: 4.56 µM

Q: What about the TGI [40] of the same molecule?
A: > 100 µM

Q: And the GI50 [41]?
A: > 100 µM

Q: What about the TGI [41] of the same molecule?
A: > 100 µM
